Consider one molecule from patent US8329392B2, “Determination of testosterone by mass spectrometry” (Quest Diagnostics Investments Incorporated, priority 2003, dated 2012).

SMILES strings stand for the structures.

Series [1] deals with T1, Sex hormone-binding globulin (SHBG) (Homo sapiens, UniProt P04278).
T1 sequence (P04278 30-402): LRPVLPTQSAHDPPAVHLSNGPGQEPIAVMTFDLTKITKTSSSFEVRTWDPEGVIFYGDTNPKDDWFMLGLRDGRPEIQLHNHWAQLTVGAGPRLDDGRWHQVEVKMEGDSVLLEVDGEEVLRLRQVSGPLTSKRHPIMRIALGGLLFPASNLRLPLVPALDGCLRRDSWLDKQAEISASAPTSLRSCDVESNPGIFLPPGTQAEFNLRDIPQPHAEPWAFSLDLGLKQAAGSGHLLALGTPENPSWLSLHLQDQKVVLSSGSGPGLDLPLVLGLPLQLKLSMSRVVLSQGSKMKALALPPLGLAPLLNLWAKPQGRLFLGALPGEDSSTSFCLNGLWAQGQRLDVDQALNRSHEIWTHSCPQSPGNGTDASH
The conditions noted are these: SHBG vs albumin; cited from earlier work.

Series [2] is described as follows: Sample stability of testosterone in sample pools. It counts as physicochemical, human. To be noted: testosterone in samples. The text has this:
A blood serum sample is collected from a human patient. The serum is first de-proteinated using a 10% formic acid solution or a 1% trichloroacetic acid solution (in methanol). The deproteination also acts to release testosterone from SHBG, albumin, and other binding proteins. In other embodiments proteins can be removed from the blood with other acids such as a solution of 1% trichloroacetic acid in methanol.
To understand the stability of testosterone in samples, two levels of sample pool were subjected to the following conditions:
Freeze/Thaw: 1, 2, 3, 4, and 5 cycles.
Refrigerated (2-8° C.): 0, 1, 2, 4, 7, and 14 days.
Duplicate runs of samples were run on two separate days.

Series [3] has as its system plasma proteins. The conditions noted are these: in circulation; cited from earlier work.

With `C[C@]12CC[C@H]3[C@@H](CCC4=CC(=O)CC[C@@]43C)[C@@H]1CC[C@@H]2O` [Testosterone, 4 androsten 17β-ol-3-one], the “binding capacity of SHBG for testosterone relative to that of albumin” value in series [1] is “approximately 30,000 times”. For the same molecule, the Stability result in series [2] (Freeze Thaw Cycles, with no effect) was “Up to 5 with no effect Cycles”; in series [2] (Refrigerated (0°-8° C.)), 7 days; in series [2] (Room Temp (18-25° C.)), 4 days. Moreover, the “testosterone circulating unbound to plasma proteins” value in series [3] is on record as “Less than 2.5%”.
